Blank lines part the entries; values can stand above or below the molecule they belong to.
Assays:
[1] = method code SF-HPLC, from DOI: 10.1016/0378-5173(91)90409-h; details: pH 7.4
[2] = not given; remark: listed apart in the source
[3] = not given; remark: listed apart in the source
[4] = method code SF-AS, from PMID: 7306420; details: pH 7.5
[5] = not given; remark: listed apart in the source
[6] = not given; remark: listed apart in the source
[7] = method code SF-RC, from DOI: 10.1016/s0022-2275(20)42614-8, PMID: 2280184; details: pH 1.0
[8] = not given; remark: listed apart in the source
[9] = not given; remark: listed apart in the source
[10] = not given; remark: listed apart in the source
[11] = method code SF-LC/MS, from DOI: 10.1002/rcm.3594, PMID: 18543375; details: pH 7.4
[12] = not given; remark: listed apart in the source
[13] = method code SF-EIA, from DOI: 10.1016/s0022-2275(20)42614-8, PMID: 2280184; details: pH 1.0
[14] = method code SF, from DOI: 10.1016/j.bmcl.2013.12.011, PMID: 24342238
[15] = not given; remark: listed apart in the source
[16] = not given; remark: listed apart in the source
[17] = method code SF-HPLC, from DOI: 10.1016/j.ejps.2006.07.007, PMID: 16997537; details: pH 7.4
[18] = not given; remark: listed apart in the source
[19] = method code SF-AS, from PMID: 4762845; details: pH 1.0
[20] = method code SF-HPLC, from DOI: 10.1016/j.ejps.2016.07.010, PMID: 27422078; details: pH 7.4
[21] = method code SF-RC, from DOI: 10.1016/j.nucmedbio.2008.04.004, PMID: 18589308; details: pH 7.4
[22] = not given; remark: listed apart in the source
[23] = method code SF-RC, from DOI: 10.1016/j.nucmedbio.2013.04.008, PMID: 23731552; details: pH 7.4
[24] = method code SF-AS, from DOI: 10.1016/0014-2999(72)90235-x, PMID: 4113999
[25] = not given; remark: listed apart in the source
[26] = not given; remark: listed apart in the source
[27] = method code SF-AS, from DOI: 10.3109/00498258809055142, PMID: 3354228
[28] = method code SF-AS, from PMID: 7170648; details: pH 7.4
[29] = method code SF, from DOI: 10.1016/0014-2999(77)90010-3, PMID: 336381; details: pH 9.8
[30] = method code SF, from Huang, J.; Leng, X. (1993). Interaction of rat hepatocyte and cytochrome P 450 with pyrethroids in vitro. Dong Wu Xue Bao, 39(4)418-423.
[31] = not given; remark: listed apart in the source
[32] = not given; remark: listed apart in the source
[33] = method code SF-AS, from DOI: 10.1081/jlc-120004751
[34] = not given; remark: listed apart in the source
[35] = not given; remark: listed apart in the source
[36] = not given; remark: listed apart in the source
[37] = not given; remark: listed apart in the source
[38] = method code SF-HPLC, from Xiong, Ð. (2009). Apparent partiton coefficient of hawthorn leaf flavonoids in phospholipids complex. Chinese Traditional Patent Medicine, 31(7)1075-1078.
[39] = from Courrière, P.; Paubel, J.P.; Nivière, P.; Foussard-Blaspin, O. (1978). Structure-activity study in a series of local anesthetic agents. I. Physicochemical properties and molecular orbital study. …
[40] = method code SF-AS, from DOI: 10.1021/ja00198a050
[41] = method code SF-HPLC, from DOI: 10.1016/j.ijpharm.2014.07.033, PMID: 25079434; details: pH 7.4

logD [1]: -1.25
Structure (SMILES): NC(=O)[C@@H]1CCCN1C(=O)[C@H](Cc1cn(C2OC(=O)c3ccccc32)cn1)NC(=O)[C@@H]1CCC(=O)N1 (some centres not stated)

logP: 3.48
Structure (SMILES): CC(=O)O[C@]1(C(C)=O)CC[C@H]2[C@@H]3C[C@H](F)C4=CC(=O)CC[C@]4(C)[C@H]3CC[C@@]21C

logP [2]: 8.14
Structure (SMILES): CCCCCCCCCCCCC(Br)C(=O)OCC1OC(n2cc(C)c(=O)[nH]c2=O)CC1N=[N+]=[N-] (configuration not stated)

logP [3]: 4.33
Structure (SMILES): C=CCn1nc(-c2sc(NC(=O)C(C)(C)C)nc2C)cc1C(=O)NCc1ccccc1

logD [4]: 2.02
Structure (SMILES): CS(=O)(=O)c1ccc2c(c1)N(CCCN1CCC(C(N)=O)CC1)c1ccccc1S2

logP [5]: 4.8
Structure (SMILES): CCCN(CCCCN1C(=O)CC2(CCCC2)CC1=O)C1COc2cccc(OC)c2C1 (configuration not stated)

logP [6]: 7.17
Structure (SMILES): COc1ccc(C=Cc2ccc(C=Cc3ccc(OC)c(C(F)(F)F)c3)c(O)c2)cc1C(F)(F)F

logD [7]: 2.25
Structure (SMILES): CC(CCC(=O)NCC(=O)O)C1CCC2C3CCC4CC(O)CCC4(C)C3CC(O)C12C (stereo in doubt)

logP [8]: 3.35
Structure (SMILES): FCCOc1ccc(CN2CCN(Cc3cc4ccccc4o3)CC2)cc1

logP [9]: 1.53
Structure (SMILES): COc1cccc2c1C(=O)c1c(O)c3c(c(O)c1C2=O)C[C@@](O)(C(=O)CO)C[C@@H]3O[C@H]1C[C@H](N)[C@H](I)[C@H](C)O1

Structure (SMILES): CCCCC(CC)COC(=O)c1ccccc1C(=O)OCC(CC)CCCC (configuration not stated)
logP [10]: 7.3

Structure (SMILES): COc1cc2c(c(OC)c1OC)-c1ccc(OC)c(=O)cc1[C@@H](NC(C)=O)CC2
logD [11]: 1.08

logP [12]: 3.8
Structure (SMILES): COc1cccc([C@H](O)C2CCN(CCc3ccc(F)cc3)CC2)c1OC

logD [13]: 3.08
Structure (SMILES): C[C@H](CCC(=O)O)[C@H]1CC[C@H]2[C@@H]3C[C@H](O)[C@@H]4C[C@H](O)CC[C@]4(C)[C@H]3CC[C@]12C

logP [14]: 3.48
Structure (SMILES): CN(C)Cc1cc(C=CC(=O)C=C(O)C=Cc2ccc(O)c(N(C)C)c2)ccc1O

Structure (SMILES): C[C@]12CC[C@H](O)C[C@H]1CC[C@@H]1[C@@H]2CC[C@]2(C)[C@@H](c3ccc(=O)oc3)CC[C@]12O
logP [15]: 3.34

logP [16]: 1.13
Structure (SMILES): CC(C)C(NC(=O)CN1C(=O)C(NC(=O)NCc2cc[n+]([O-])cc2)CC=C1c1ccccc1)C(=O)C(F)(F)F (configuration not stated)

logD [17]: 2.37
Structure (SMILES): CCOC(=O)C1OC(Oc2cc3oc(-c4ccc(O)cc4)cc(=O)c3c(O)c2O)C(O)C(O)C1O (configuration not stated)

logP [18]: 3.4
Structure (SMILES): c1cncc(-c2cnn3cc(-c4ccc(OCCN5CCCCC5)cc4)cnc23)c1

logD [19]: 1.42
Structure (SMILES): O=C(CCOCCOCCOCCOCCC(=O)Nc1c(I)cc(I)c(C(=O)O)c1I)Nc1c(I)cc(I)c(C(=O)O)c1I

logD [20]: 2.33
Structure (SMILES): Cc1cc(=O)c2c(O)cc(O)c(C3CCN(C)CC3OC(=O)c3ccccc3)c2o1 (configuration not stated)

logD [21]: 3.95
Structure (SMILES): O=C(OC[C@@H]1O[C@H](n2cc(Br)c(=O)[nH]c2=O)[C@H](F)[C@H]1OC(=O)c1ccccc1)c1ccccc1

logP [22]: 3.78
Structure (SMILES): CN1CCc2cc(Cl)c(O)cc2[C@@H](c2ccc(SCc3ccccc3)cc2)C1

Structure (SMILES): O=C(Nc1cccnn1)N1CCC(=Cc2cccc(Oc3ccc(C(F)(F)F)cn3)c2)CC1
logD [23]: 3.48

logP [24]: 3
Structure (SMILES): OCCN1CCN(CCC=C2c3ccccc3Sc3ccc(Cl)cc32)CC1

Structure (SMILES): CN1CN(c2ccccc2)C2(CCN(CCCC(=O)c3ccc(I)s3)CC2)C1=O
logP [25]: 3.14

logP [26]: -1.52
Structure (SMILES): CC(=O)N(O)CCCCCNC(=O)CCC(=O)N(O)CCCCCNC(=O)CCC(=O)N(O)CCCCCN

logP [27]: 3
Structure (SMILES): OCCN1CCN(CCCN2c3ccccc3C=Cc3ccccc32)CC1

logD [28]: 3.95
Structure (SMILES): CCN(CC)C(=O)N1CCN(Cc2cc(Nc3ccnc4cc(Cl)ccc34)ccc2O)CC1

logD [29]: 3.43
Structure (SMILES): O=c1[nH]c2ccccc2n1C1CCN(C[C@@H](O)[C@@H]2COc3ccccc3O2)CC1 (relative stereo)

Structure (SMILES): CC(C)C(C(=O)OC(C#N)c1cccc(Oc2ccccc2)c1)c1ccc(OC(F)F)cc1 (configuration not stated)
logP [30]: 5.55

logP [31]: 2.57
Structure (SMILES): O=C(NNCc1ccncc1)C1CCCN1C(=O)C(Cc1ccc(Cl)c(Cl)c1)NS(=O)(=O)Cc1ccccc1 (configuration not stated)

logP [32]: 3.38
Structure (SMILES): COc1cc2nc(N3CCN(C(=O)C4COc5ccccc5O4)CC3)nc(N)c2cc1OC (configuration not stated)

logP [33]: 0.67
Structure (SMILES): Cc1cn(C2CC(N=[N+]=[N-])C(COC(=O)C(=O)NC(Cc3c[nH]c4ccccc34)C(=O)O)O2)c(=O)[nH]c1=O (configuration not stated)

logP [34]: 0.9
Structure (SMILES): COC(=O)CC(O)CC(O)C=Cn1c(C(C)C)nc(-c2ccncc2)c1-c1ccc(F)cc1 (configuration not stated)

logP [35]: 4.2
Structure (SMILES): CC(C)(C)CC(=O)N1CCC(N(c2ccc(C(F)(F)F)cc2)c2cccnc2)CC1

logP [36]: 7.64
Structure (SMILES): c1cc2ccc3ccc4ccc5ccc6ccc1c1c2c3c4c5c61

logP [37]: 2.1
Structure (SMILES): Cc1cc(C(=O)Nc2ccc(-c3ccccc3S(N)(=O)=O)cc2)n(-c2ccc3onc(N)c3c2)n1

logP [38]: -0.09
Structure (SMILES): C[C@@H]1O[C@@H](OC[C@H]2O[C@@H](Oc3c(-c4ccc(O)c(O)c4)oc4cc(O)cc(O)c4c3=O)[C@H](O)[C@@H](O)[C@@H]2O)[C@H](O)[C@H](O)[C@H]1O

Structure (SMILES): CCN(CC)CCCN(C(=O)Cc1ccccc1)c1c(C)cccc1C
logP [39]: 4.94

logP [40]: 1.89
Structure (SMILES): CC(C)(C)c1ccc2c(c1)OCCOCCOCCOCCOCCOCCOCCOCCO2

logD [41]: 3.26
Structure (SMILES): CNC(=O)c1cccc2c(Nc3ccc(NS(C)(=O)=O)cc3OC)c3cccc(C)c3nc12

From the SangsterLogP compilation
